From PMC10096344 (Molecules, 2023)

Key:
C57BL/6 mice = format: in vivo
Experimental: All animals were closely observed every day for three weeks. The body weight and toxic effects were monitored and the survival rate was calculated. At the end of experiment, the survival mice were euthanized; vital organs, including heart, liver, lung, kidney and spleen, were then excised, weighed and preserved for histopathological observation.

[1] = tested on: P. aeruginosa (ATCC27853); experiment: Anti-bacterial activity, inhibition zone diameter on agar; format: cell-based, Pseudomonas aeruginosa; conditions: LP4C 5, 10, 50, 100, 200 μg/mL
Experimental: P. aeruginosa (ATCC27853) was cultured in 3 mL LB culture medium, shaken at 220 rpm for 12 h at 37 °C and diluted to 1 × 10^6 CFU/mL. The culture disk was coated with 1% agar, and 100 μL bacterial suspension was added to the agar in the disk evenly. […] LP4C or reference antibiotics were then added in each hole. The disk was cultured for 12–16 h at 37 °C; the result was then observed and the inhibition zone diameter was measured.

S. typhimurium TA98 = experiment: Bacterial reverse mutation assay (Ames assay); format: cell-based, Salmonell typhimurium; conditions: n = 3
Experimental: (§1) A sample of 2-aminofluorene (10 μg/plate) was used for TA97, TA98, TA100 +S9 test strains, while 1,8-dihydroxyanthraquinone (60 μg/plate) was used for the TA102 +S9 test strain. The histidine was added with the same amount. The plates were incubated for 48 h at 37 °C; the number of colonies was then counted per plate.

S. typhimurium TA102 = experiment: Bacterial reverse mutation assay (Ames assay); format: cell-based, Salmonell typhimurium; conditions: n = 3
Experimental: as §1

S. typhimurium TA100 = experiment: Bacterial reverse mutation assay (Ames assay); format: cell-based, Salmonell typhimurium; conditions: n = 3
Experimental: as §1

S. typhimurium TA97 = experiment: Bacterial reverse mutation assay (Ames assay); format: cell-based, Salmonell typhimurium; conditions: n = 3
Experimental: as §1

[2] = tested on: pyr genes (pyrA, pyrB, pyrC, pyrD, pyrE and pyrF); experiment: RT-PCR (qPCR) of pyr genes; format: cell-based, Pseudomonas aeruginosa; conditions: LP4C 10 μg/mL vs control
Experimental: The total RNA was isolated from P. aeruginosa cultures, and qPCR amplification was performed according to the instrument of the quantitative PCR system (Stratagene Mx3005P, Agilent, USA); the thermal cycler was then initiated by denaturation procedure for 2 min at 93 °C followed by 40 cycles of 1 min at 93 °C and 2 min at 55 °C. The gene-specific PCR primers were listed in Supplementary Table S3. The relative expression of genes was analyzed by the 2^−ΔΔCt method with normalization to gyrB level.

[3] = tested on: S. typhimurium strains TA97, TA98, TA100 and TA102; experiment: Bacterial reverse mutation assay (Ames assay), all strains; format: cell-based, Salmonell typhimurium
Experimental: as §1

[4] = tested on: P. aeruginosa (ATCC27853) biofilm; experiment: Bacterial biofilm formation (FITC staining, crystal violet staining); format: cell-based, Pseudomonas aeruginosa
Experimental: The bacterial biofilm growth and measurement was performed according to our previously reported method. Briefly, P. aeruginosa (ATCC27853) was cultured in the tube with nutrient broth containing 2% (w/v) glucose, shaken at 220 rpm for 12 h at 37 °C. The suspension was diluted to 1 × 10^6 CFU/mL and added to 96-well plates, the bacteria was cultured for 24 h at 37 °C for biofilm growth and the planktonic bacterial of each well was removed by PBS rinsing three times. To observe the biofilm formation, the fluorescein isothiocyanate (FITC) was added into the plates and incubated for 2 h at 37 °C; the labeled biofilm was then washed by PBS and visualized under the fluorescence microscopy (Olympus CKX53, Tokyo, Japan). The measurement of biofilm was performed according to the following procedure: the mature biofilm was fixed with 150 μL methanol and left to air dry, then stained with 150 μL of 1% (w/v) crystal violet solution for 15 min at room temperature. The plate was rinsed with PBS three times and 150 μL of glacial acetic acid was added to each well; the optical density was measured at 630 nm optical density using a microplate reader (Bio-Tek ELX800, Berten, USA).

[5] = Pharmacokinetics measurement; format: in vivo; conditions: SD rats; for plasma half-life: single dose
[6] = tested on: CCC-HHM-2 (human embryonic myocardial tissue cell); experiment: Cytotoxicity test, CCK-8; format: cell-based
Experimental: (§2) Optical density was calculated by the microplate reader (BioTek flx800, Berten, USA).

[7] = tested on: HUVEC (human umbilical vein endothelial cell); experiment: Cytotoxicity test, CCK-8; format: cell-based
Experimental: as §2

[8] = 200 μg/mL vs anti-biofilm concentration of LP4C
[9] = LP4C under 200 μg/mL, 24 h, vs vehicle

SMILES: N#CC1=C(N)Oc2c(c(=O)oc3ccccc23)C1c1cc(C(F)(F)F)cc(C(F)(F)F)c1 (centres unmarked) [LP4C]
- survival rate vs Control (C57BL/6 mice; 20 mg/kg to 320 mg/kg intragastric, three weeks): not a significant difference in the survival rate
- death and toxicity signs (C57BL/6 mice; 20, 40 and 80 mg/kg intragastric, three-week period): no death and obvious toxicity sign was observed
- histopathological changes (H&E) of heart, liver, lung, kidney and spleen (C57BL/6 mice; intragastric, vs control groups): no obvious pathological change was observed, except the slight hemorrhagic phenomena that occurred in the liver section in the 320 mg/kg LP4C Treatment Group
- growth inhibition / bactericidal activity (inhibition zone) [1]: no bactericidal activity
- number of bacterial revertant colonies (S. typhimurium TA98; LP4C 50 μg/plate, TA98, +S9, mean ± SD): 32 ± 3.6
- number of bacterial revertant colonies (S. typhimurium TA98; LP4C 50 μg/plate, TA98, −S9, mean ± SD): 26 ± 2.2
- number of bacterial revertant colonies (S. typhimurium TA98; LP4C 200 μg/plate, TA98, +S9, mean ± SD): 33 ± 4.1
- number of bacterial revertant colonies (S. typhimurium TA98; LP4C 200 μg/plate, TA98, −S9, mean ± SD): 26 ± 4.8
- number of bacterial revertant colonies (S. typhimurium TA98; LP4C 1000 μg/plate, TA98, +S9, mean ± SD): 32 ± 4.7
- number of bacterial revertant colonies (S. typhimurium TA98; LP4C 1000 μg/plate, TA98, −S9, mean ± SD): 25 ± 5.4
- number of bacterial revertant colonies (S. typhimurium TA98; LP4C 2000 μg/plate, TA98, +S9, mean ± SD): 32 ± 5.8
- number of bacterial revertant colonies (S. typhimurium TA98; LP4C 2000 μg/plate, TA98, −S9, mean ± SD): 26 ± 6.7
- number of bacterial revertant colonies (S. typhimurium TA98; LP4C 5000 μg/plate, TA98, +S9, mean ± SD): 31 ± 5.2
- number of bacterial revertant colonies (S. typhimurium TA98; LP4C 5000 μg/plate, TA98, −S9, mean ± SD): 24 ± 3.5
- number of bacterial revertant colonies (S. typhimurium TA102; LP4C 50 μg/plate, TA102, +S9, mean ± SD): 276 ± 11.2
- number of bacterial revertant colonies (S. typhimurium TA102; LP4C 50 μg/plate, TA102, −S9, mean ± SD): 260 ± 10.3
- number of bacterial revertant colonies (S. typhimurium TA102; LP4C 200 μg/plate, TA102, +S9, mean ± SD): 281 ± 9.36
- number of bacterial revertant colonies (S. typhimurium TA102; LP4C 200 μg/plate, TA102, −S9, mean ± SD): 271 ± 5.68
- number of bacterial revertant colonies (S. typhimurium TA102; LP4C 1000 μg/plate, TA102, +S9, mean ± SD): 279 ± 10.6
- number of bacterial revertant colonies (S. typhimurium TA102; LP4C 1000 μg/plate, TA102, −S9, mean ± SD): 267 ± 8.35
- number of bacterial revertant colonies (S. typhimurium TA102; LP4C 2000 μg/plate, TA102, +S9, mean ± SD): 280 ± 11.3
- number of bacterial revertant colonies (S. typhimurium TA102; LP4C 2000 μg/plate, TA102, −S9, mean ± SD): 262 ± 8.44
- number of bacterial revertant colonies (S. typhimurium TA102; LP4C 5000 μg/plate, TA102, +S9, mean ± SD): 273 ± 12.6
- number of bacterial revertant colonies (S. typhimurium TA102; LP4C 5000 μg/plate, TA102, −S9, mean ± SD): 256 ± 9.21
- number of bacterial revertant colonies (S. typhimurium TA100; LP4C 50 μg/plate, TA100, +S9, mean ± SD): 130 ± 7.68
- number of bacterial revertant colonies (S. typhimurium TA100; LP4C 50 μg/plate, TA100, −S9, mean ± SD): 117 ± 5.96
- number of bacterial revertant colonies (S. typhimurium TA100; LP4C 200 μg/plate, TA100, +S9, mean ± SD): 133 ± 7.34
- number of bacterial revertant colonies (S. typhimurium TA100; LP4C 200 μg/plate, TA100, −S9, mean ± SD): 116 ± 6.42
- number of bacterial revertant colonies (S. typhimurium TA100; LP4C 1000 μg/plate, TA100, +S9, mean ± SD): 131 ± 6.75
- number of bacterial revertant colonies (S. typhimurium TA100; LP4C 1000 μg/plate, TA100, −S9, mean ± SD): 120 ± 8.33
- number of bacterial revertant colonies (S. typhimurium TA100; LP4C 2000 μg/plate, TA100, +S9, mean ± SD): 132 ± 6.95
- number of bacterial revertant colonies (S. typhimurium TA100; LP4C 2000 μg/plate, TA100, −S9, mean ± SD): 120 ± 5.71
- number of bacterial revertant colonies (S. typhimurium TA100; LP4C 5000 μg/plate, TA100, +S9, mean ± SD): 130 ± 5.69
- number of bacterial revertant colonies (S. typhimurium TA100; LP4C 5000 μg/plate, TA100, −S9, mean ± SD): 122 ± 7.67
- number of bacterial revertant colonies (S. typhimurium TA97; LP4C 50 μg/plate, TA97, +S9, mean ± SD): 142 ± 7.13
- number of bacterial revertant colonies (S. typhimurium TA97; LP4C 50 μg/plate, TA97, −S9, mean ± SD): 123 ± 5.92
- number of bacterial revertant colonies (S. typhimurium TA97; LP4C 200 μg/plate, TA97, +S9, mean ± SD): 140 ± 8.55
- number of bacterial revertant colonies (S. typhimurium TA97; LP4C 200 μg/plate, TA97, −S9, mean ± SD): 122 ± 7.42
- number of bacterial revertant colonies (S. typhimurium TA97; LP4C 1000 μg/plate, TA97, +S9, mean ± SD): 142 ± 5.96
- number of bacterial revertant colonies (S. typhimurium TA97; LP4C 1000 μg/plate, TA97, −S9, mean ± SD): 119 ± 8.52
- number of bacterial revertant colonies (S. typhimurium TA97; LP4C 2000 μg/plate, TA97, +S9, mean ± SD): 140 ± 6.47
- number of bacterial revertant colonies (S. typhimurium TA97; LP4C 2000 μg/plate, TA97, −S9, mean ± SD): 120 ± 8.53
- number of bacterial revertant colonies (S. typhimurium TA97; LP4C 5000 μg/plate, TA97, +S9, mean ± SD): 141 ± 7.65
- number of bacterial revertant colonies (S. typhimurium TA97; LP4C 5000 μg/plate, TA97, −S9, mean ± SD): 112 ± 9.83
- expression of pyr genes [2]: could inhibit the expression of pyr genes significantly
- number of bacterial revertant colonies vs DMSO negative control ([3]; LP4C 50 μg/plate to 5000 μg/plate): did not increase
- mutagenic potential ([3]; LP4C 50 to 5000 μg/plate, ±S9): no obvious mutagenic potential
- biofilm formation, crystal violet staining ([4]; LP4C 5 μg/mL to 200 μg/mL): could inhibit the biofilm formation in a dose-dependent manner
- formation of biofilm, FITC staining ([4]; LP4C 5-200 μg/mL vs Vehicle Treatment Group): suppressed the formation of biofilm in a dose-dependent manner
- concentration at which biofilm formation was still inhibited ([4]; inhibited even at this concentration): 5 µg/mL
- time during which blood concentration increased after administration ([5]; intragastric 10 mg/kg): ≤ 4 h
- bioavailability ([5]; intragastric 10 mg/kg vs intravenous 5 mg/kg): 46.35%
- plasma half-life ([5]; intragastric 10 mg/kg): 11 ± 1.26 h
- time during which serum concentration declined rapidly ([5]; intravenous 5 mg/kg): 10 to 60 min
- plasma half-life ([5]; intravenous 5 mg/kg): 14 ± 3.05 h
- non-toxic concentration relative to anti-biofilm concentration [6, 8]: at least 40 times
- cell viability (CCK-8) [6, 9]: the cell viability was not affected
- non-toxic concentration relative to anti-biofilm concentration [7, 8]: at least 40 times
- cell viability (CCK-8) [7, 9]: the cell viability was not affected
